Measured values reported in publication PMC11677235, “Heterologous Production, Purification and Characterization of Two Cold-Active β-D-Galactosidases with Transglycosylation Activity from the Psychrotolerant Arctic Bacterium Arthrobacter sp. S3* Isolated from Spitsbergen Island Soil” (International Journal of Molecular Sciences, 2024).
Like-named read-outs stand apart in the source and are kept apart here.

Experiments:
Type in all cases: biochemical
[1] = target: T1, Arthrobacter sp. S3* Bgal2 (GH2 β-D-galactosidase) (Arthrobacter sp. ON14, UniProt D9IU58); assay: o-nitrophenol release, absorbance […] nm, Lineweaver-Burk; conditions: 20 mM potassium phosphate, 50 mM KCl, pH 7.5, 20 °C; read-out: Km (mM) / ONPG
T1 construct: gene galA
T1 sequence (D9IU58 entry or part of it): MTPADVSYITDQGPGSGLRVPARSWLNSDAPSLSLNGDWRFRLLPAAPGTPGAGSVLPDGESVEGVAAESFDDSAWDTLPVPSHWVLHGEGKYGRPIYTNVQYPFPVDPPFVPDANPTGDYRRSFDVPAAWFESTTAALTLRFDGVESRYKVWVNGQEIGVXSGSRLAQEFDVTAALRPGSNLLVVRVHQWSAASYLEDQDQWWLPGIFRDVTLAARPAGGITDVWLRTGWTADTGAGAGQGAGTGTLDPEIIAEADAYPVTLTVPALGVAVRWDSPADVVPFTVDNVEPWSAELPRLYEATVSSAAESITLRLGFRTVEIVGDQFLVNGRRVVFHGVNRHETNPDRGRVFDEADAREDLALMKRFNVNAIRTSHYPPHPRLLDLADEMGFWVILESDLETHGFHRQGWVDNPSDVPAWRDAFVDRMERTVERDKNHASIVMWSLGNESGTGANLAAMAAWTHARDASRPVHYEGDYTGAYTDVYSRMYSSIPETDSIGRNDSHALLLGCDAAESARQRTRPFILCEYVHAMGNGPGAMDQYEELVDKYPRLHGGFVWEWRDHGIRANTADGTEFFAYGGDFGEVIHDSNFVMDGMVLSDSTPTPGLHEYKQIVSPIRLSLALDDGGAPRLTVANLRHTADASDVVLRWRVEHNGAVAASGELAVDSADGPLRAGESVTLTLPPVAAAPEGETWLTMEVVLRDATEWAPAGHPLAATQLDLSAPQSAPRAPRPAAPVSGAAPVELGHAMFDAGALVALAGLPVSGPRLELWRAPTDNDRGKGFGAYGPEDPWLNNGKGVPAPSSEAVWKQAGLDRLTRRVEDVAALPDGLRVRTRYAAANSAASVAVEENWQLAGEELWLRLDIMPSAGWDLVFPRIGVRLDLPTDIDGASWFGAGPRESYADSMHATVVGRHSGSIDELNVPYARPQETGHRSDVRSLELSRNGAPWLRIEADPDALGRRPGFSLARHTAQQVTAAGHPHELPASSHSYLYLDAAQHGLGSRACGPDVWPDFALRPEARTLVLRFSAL
Description: S3* Bgal2 (GH2 β-D-galactosidase)

[2] = target: T2, Arthrobacter sp. S3* Bgal42 (GH42 β-D-galactosidase) (Arthrobacter sp. ON14, UniProt D9IU57, P2A/G388S/G665D); assay: inhibition of ONPG hydrolysis, absorbance […] nm; conditions: 5 mM monosaccharide, 1-5 mM ONPG, 20 mM potassium phosphate, pH 7.0, 30 °C, read-out: apparent Ki
T2 construct: gene galB
T2 sequence (D9IU57 entry or part of it P2A/G388S/G665D): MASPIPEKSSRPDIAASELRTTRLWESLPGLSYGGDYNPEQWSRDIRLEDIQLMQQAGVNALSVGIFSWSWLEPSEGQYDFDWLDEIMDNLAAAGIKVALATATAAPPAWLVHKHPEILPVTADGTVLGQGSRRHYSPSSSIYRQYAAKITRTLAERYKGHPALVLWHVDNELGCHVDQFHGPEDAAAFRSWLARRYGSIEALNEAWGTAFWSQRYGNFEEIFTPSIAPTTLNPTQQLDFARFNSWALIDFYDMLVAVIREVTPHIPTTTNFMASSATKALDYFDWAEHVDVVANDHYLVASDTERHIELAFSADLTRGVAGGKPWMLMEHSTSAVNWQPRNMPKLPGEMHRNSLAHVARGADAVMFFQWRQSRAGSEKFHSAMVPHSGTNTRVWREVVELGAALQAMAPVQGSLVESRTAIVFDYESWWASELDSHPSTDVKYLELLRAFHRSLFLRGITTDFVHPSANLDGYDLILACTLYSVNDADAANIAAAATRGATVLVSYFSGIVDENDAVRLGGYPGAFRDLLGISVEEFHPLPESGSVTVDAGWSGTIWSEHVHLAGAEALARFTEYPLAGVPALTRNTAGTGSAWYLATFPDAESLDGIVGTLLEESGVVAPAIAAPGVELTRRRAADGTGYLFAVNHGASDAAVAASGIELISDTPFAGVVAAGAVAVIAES

[3] = target: T1, Arthrobacter sp. S3* Bgal2 (GH2 β-D-galactosidase); assay: glucose release by Glucose (GO) Assay Kit, Lineweaver-Burk; conditions: read-out: Km (mM) / Lactose; 20 mM potassium phosphate, 50 mM KCl, pH 7.5, 20 °C
Description: glucose release by Glucose (GO) Assay Kit, Lineweaver-Burk on Arthrobacter sp. S3* Bgal2 (GH2 β-D-galactosidase)

## O=[N+]([O-])c1ccccc1O[C@@H]1O[C@H](CO)[C@H](O)[C@H](O)[C@H]1O [ONPG]
[1]
  Km: 0.32 ± 0.07 mM

## OC[C@H]1OC(O)[C@H](O)[C@@H](O)[C@H]1O (stereo partly drawn) [D-galactose]
[2]; competitive
  Ki: 2.99 mM

## OC[C@H]1O[C@@H](O[C@H]2[C@H](O)[C@@H](O)C(O)O[C@@H]2CO)[C@H](O)[C@@H](O)[C@H]1O (stereo partly shown) [lactose]
[3]
  Km: 16.7 ± 0.81 mM

## OC[C@H]1OC(O)[C@H](O)[C@@H](O)[C@@H]1O (stereo partly drawn) [D-glucose]
[2]; uncompetitive
  Ki: 6.01 mM
